Columns and labels:
[1] = tested on: primary neonatal rat ventricular cardiomyocytes; assay: DNA synthesis, mitosis and cytokinesis in primary neonatal rat ventricular cardiomyocytes; format: cell-based; conditions: periostin plus FGF
Source text: (§1) Primary neonatal rat ventricular cardiomyocytes were isolated using the Neomyts kit (Cellutron, Highland Park, N.J.), seeded at a density of 10^5 cells/cm^2 onto gelatin-coated cover slips, stimulated for 3 days, and labeled with BrdU for the terminal 2 days. Primary adult ventricular cardiomyocytes were isolated from male (300 gm) Wistar rats (Charles River Laboratories) and maintained as described (Engel, F. B. et al. p38 MAP kinase inhibition enables proliferation of adult mammalian cardiomyocytes. Genes Dev 19, 1175-87 (2005)). Adult cardiomyocytes were stimulated daily for 9 days and labeled with 30 μM BrdU for the terminal 3 days. Cardiomyocytes were stimulated with periostin (500 ng/mL) and FGF (100 ng/mL). Inhibiting antibodies were added at a concentration of 10 μg/mL, cRGD at 10 μM, U0126 at 10 μM, PD98059 at 1 μM, LY294002 at 10 μM, and Wortmannin at 0.1 μM 30 min prior to stimulation. The vehicle used to dissolve factors or chemicals was added to unstimulated samples, which were then processed together with the test samples.
(§2) DNA-synthesis was analyzed by visualization of BrdU uptake and cytokinesis was determined by detection of the cleavage furrow and the midbody with an antibody against aurora B kinase as described (Engel, F. B. et al. p38 MAP kinase inhibition enables proliferation of adult mammalian cardiomyocytes. Genes Dev 19, 1175-87 (2005)). Signals were visualized with secondary antibodies conjugated to Alexa 488, Alexa 546, Alexa 594, and Alexa 647 (Invitrogen). Nuclei were visualized with 4′,6′-diamidino-2-phenylindole (DAPI, Invitrogen). For image acquisition, the value for γ was set at 1 and the lookup table settings were linear.

[2] = tested on: atrial natriuretic factor (ANF); assay: Transcription of atrial natriuretic factor by RT-PCR in neonatal cardiomyocytes; format: cell-based, rat; conditions: 72 hr stimulation
Experimental: RNA was prepared using Trizol reagent (Invitrogen) from neonatal rat ventricular cardiomyocytes after 72 hr of stimulation. Complementary DNA was synthesized from 2 μg RNA with the SuperScriptIII kit (Invitrogen) using oligo-dT primers. One μL cDNA was used as template for 20 μL PCR-reactions (95° C. for 2 min, 30 cycles of 95° C. for 2 min, 55° C. for 2 min, 72° C. for 5 min, followed by 72° C. for 10 min). Oligonucleotide primers used for detection of ANF were F: 5′-[…]-3′ (Seq ID No. 2), R: 5′-[…]-3′ (Seq ID No. 3), β-actin were F: 5′-[…]-3′ (Seq ID No. 4), R: 5′-[…]-3′ (Seq ID No. 5), […] were F: 5′-[…]-3′ (Seq ID No. 6), R: 5′-[…]-3′ (Seq ID No. 7); SMA were F: 5′-[…]-3′ (Seq ID No. 8), R: 5′-[…]-3′ (Seq ID No. 9); SERCA2 were F: 5′-[…]-3′ (Seq ID No. 10), R: 5′-[…]-3′ (Seq ID No. 11), and for GAPDH: 5′-[…]-3′ (Seq ID No. 12), R: 5′-[…]-3′ (Seq ID No. 13).

[3] = tested on: primary adult rat ventricular cardiomyocytes; assay: DNA synthesis (BrdU uptake, immunofluorescence) in primary adult rat ventricular cardiomyocytes; format: cell-based
Source text: Primary neonatal rat ventricular cardiomyocytes were isolated using the Neomyts kit (Cellutron, Highland Park, N.J.), seeded at a density of 10^5 cells/cm^2 onto gelatin-coated cover slips, stimulated for 3 days, and labeled with BrdU for the terminal 2 days. Primary adult ventricular cardiomyocytes were isolated from male (300 gm) Wistar rats (Charles River Laboratories) and maintained as described (Engel, F. B. et al. p38 MAP kinase inhibition enables proliferation of adult mammalian cardiomyocytes. Genes Dev 19, 1175-87 (2005)). Adult cardiomyocytes were stimulated daily for 9 days and labeled with 30 μM BrdU for the terminal 3 days. Cardiomyocytes were stimulated with periostin (500 ng/mL) and FGF (100 ng/mL). […] The vehicle used to dissolve factors or chemicals was added to unstimulated samples, which were then processed together with the test samples. DNA-synthesis was analyzed by visualization of BrdU uptake and cytokinesis was determined by detection of the cleavage furrow and the midbody with an antibody against aurora B kinase as described (Engel, F. B. et al. p38 MAP kinase inhibition enables proliferation of adult mammalian cardiomyocytes. Genes Dev 19, 1175-87 (2005)). Signals were visualized with secondary antibodies conjugated to Alexa 488, Alexa 546, Alexa 594, and Alexa 647 (Invitrogen). […] For image acquisition, the value for γ was set at 1 and the lookup table settings were linear. Primary adult rat ventricular cardiomyocytes were grown on gridded cover slips (Electron Microscopy Services, Ft. Washington, Pa.) and imaged in phase contrast at 10× magnification. Cardiomyocytes were transduced with an adenovirus leading to nuclear expression of histone2B-GFP (Shi, Q. & King, R. W. Nature 437, 1038-42 (2005)) under control of the chicken troponin T promoter ([…]. Am J Physiol Cell Physiol 286, […]-64 (2004)). Nuclei were visualized at 10× magnification with a mercury-arc lamp dimmed to 1.5% with a neutral density filter. […] Images of BrdU-positive cardiomyocytes were matched with the corresponding images from before stimulation. For quantification, differentiated cardiomyocytes were defined as striated rod-shaped structures with length/width ratio>1.5.

[4] = tested on: primary adult rat ventricular cardiomyocytes; assay: Cytokinesis (aurora B kinase) in primary adult rat ventricular cardiomyocytes; format: cell-based; conditions: 9 days stimulation
Source text: as §1, §2

[5] = tested on: differentiated cardiomyocytes; assay: Hypertrophy by [3H]leucine uptake; format: cell-based, rat; conditions: phenylephrine 10 mM [sic]; all time points tested
Source text: Induction of the fetal gene program is accompanied by increased protein synthesis leading to cardiomyocyte hypertrophy. We assessed cardiomyocyte hypertrophy by measuring uptake of [^3H]leucine.

[6] = tested on: adult ventricular cardiomyocytes; assay: Transcription of fetal gene program (RT-PCR) in adult ventricular cardiomyocytes; format: cell-based, rat

Molecule | effect of co-stimulation with periostin on DNA synthesis [1] | transcription of atrial natriuretic factor (ANF) [2] | cardiomyocyte DNA synthesis ([3]; 9 days stimulation (periostin 500 ng/mL, FGF 100 ng/mL), BrdU terminal 3 days) [%] | effect on periostin-induced cardiomyocyte DNA synthesis when added ([3]; FGF 100 ng/ml, SB203580 5 mM or 10 mM as printed) | cytokinesis, of all differentiated cardiomyocytes [4] [%] | [3H]leucine uptake (hypertrophy) [5] | transcription of SERCA2 [6] | transcription of β-MHC, SMA and ANF [6]
FGF: FGF1 provided by R&D Systems; known stimulus of cardiomyocyte DNA synthesis | additive effect | induced | 1.3±0.6 | increased | 0.3±0.1 |  |  | 
CNC[C@H](O)c1cccc(O)c1 [phenylephrine, reference compound] |  | induced |  |  |  | induced | slightly reduced | increased transcription
